From the supplement of paper PMC8671470

These compounds were tested on myeloid leukemia patient primary cells Pat.7 (assay: cell viability (% survival relative to DMSO control); higher = less cytotoxic). Settings: 100 nM; 72 h.
In short: (§1)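 Where an area under the curve appears, it was computed with the drc and PharmacoGx R packages from log-logistic fits. Those fits used four parameters. The underlying viability data came from CellTiter-Glo after 72 h, normalised to DMSO and 10 μM proteasome-inhibitor wells, with thawed, Ficoll-purified AML or CML patient mononuclear cells at 10,000 cells/well in RPMI 1640 with 10% FBS on 384-well plates pre-printed with 70 compounds at five tenfold concentrations (1–10,000 nM) in duplicate.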

First: Oc1ccc(Nc2nc(-c3ccc(Cl)cc3)cs2)cc1 [SKI II]
Second: CC[C@@]1(O)C(=O)OCc2c1cc1n(c2=O)Cc2cc3c(CN(C)C)c(O)ccc3nc2-1 [Topotecan]
The cell viability of the first is lower: 62.7% for the first, 81.4% for the second.

Same assay, conditions: 1000 nM; 72 h

First: O=C(C1CC1)N1CC[C@@H](C=C2NNC(=O)N2c2ccc(-c3ccc4occc4c3)cc2)C1
Second: Cc1c(-c2ccc(-c3ccccc3F)cc2)nc2ccc(F)cc2c1C(=O)O [Brequinar]
The cell viability of the first is lower: 51.6% for the first, 60.6% for the second.

Going from C[C@H](NC(=O)c1sccc1OCc1ccc(Cl)cc1)c1ccccc1 to Oc1ccc(Nc2nc(-c3ccc(Cl)cc3)cs2)cc1 [SKI II], the cell viability falls from 40.2% to 11.5%.

Going from O=C(O)C1=CC(=C(c2ccc(O)c(C(=O)O)c2)c2ccc(O)c(C(=O)O)c2)C=CC1=O [Aurintricarboxylic acid] to O=C1c2cc([N+](=O)[O-])ccc2-n2c1nc1ccccc1c2=O [GNF-Pf-3777], the cell viability falls from over 100% to 97.1%.

Compared with COC(=O)[C@]12CCC(C)(C)C[C@H]1[C@H]1C(=O)C=C3[C@@]4(C)C=C(C#N)C(=O)C(C)(C)[C@@H]4CC[C@@]3(C)[C@]1(C)CC2 [Bardoxolone methyl], COc1cc(/C=C/C(=O)N2CCC=CC2=O)cc(OC)c1OC [Piperlongumine] is higher in cell viability: under 0% for the first, 78.6% for the second.

First: O=C1O/C(=C/Br)CCC1c1cccc2ccccc12 (centres undefined) [Bromoenol Lactone]
Second: O=C(O)Cn1nnc(-c2cc(N3CCC(Oc4cc(F)ccc4Br)CC3)no2)n1 [MK-8245]
The cell viability of the first is lower: 30% for the first, over 100% for the second.

Compared with Nc1nc(Cl)nc2c1ncn2[C@H]1C[C@H](O)[C@@H](CO)O1 [Cladribine], CC[C@@]1(O)C(=O)OCc2c1cc1n(c2=O)Cc2cc3c(CN(C)C)c(O)ccc3nc2-1 [Topotecan] is higher in cell viability: under 0% for the first, 34.7% for the second.

Compared with N#CC(C#N)=NNc1ccc(OC(F)(F)F)cc1 [FCCP], C=C(C)[C@H]1Cc2c(ccc3c2O[C@@H]2COc4cc(OC)c(OC)cc4[C@@H]2C3=O)O1 [Rotenone] is higher in cell viability: under 0% for the first, 36.3% for the second.

C=C(C=NNC(=N)N)NNC(=N)N [Mitoguazone] was tested, and the cell viability was under 0%.

Same assay, conditions: 10000 nM; 72 h

Going from O=C(C1CC1)N1CC[C@@H](C=C2NNC(=O)N2c2ccc(-c3ccc4occc4c3)cc2)C1 to Cc1c(-c2ccc(-c3ccccc3F)cc2)nc2ccc(F)cc2c1C(=O)O [Brequinar], the cell viability falls from 71.6% to 55.3%.

C[C@H](NC(=O)c1sccc1OCc1ccc(Cl)cc1)c1ccccc1 and Oc1ccc(Nc2nc(-c3ccc(Cl)cc3)cs2)cc1 [SKI II] cannot be ordered by cell viability: under 0% for the first, under 0% for the second.

Going from O=C(O)C1=CC(=C(c2ccc(O)c(C(=O)O)c2)c2ccc(O)c(C(=O)O)c2)C=CC1=O [Aurintricarboxylic acid] to O=C1c2cc([N+](=O)[O-])ccc2-n2c1nc1ccccc1c2=O [GNF-Pf-3777], the cell viability falls from 70.9% to 21.8%.

Going from COC(=O)[C@]12CCC(C)(C)C[C@H]1[C@H]1C(=O)C=C3[C@@]4(C)C=C(C#N)C(=O)C(C)(C)[C@@H]4CC[C@@]3(C)[C@]1(C)CC2 [Bardoxolone methyl] to COc1cc(/C=C/C(=O)N2CCC=CC2=O)cc(OC)c1OC [Piperlongumine], the cell viability rises from under 0% to 57%.

First: O=C1O/C(=C/Br)CCC1c1cccc2ccccc12 (centres undefined) [Bromoenol Lactone]
Second: O=C(O)Cn1nnc(-c2cc(N3CCC(Oc4cc(F)ccc4Br)CC3)no2)n1 [MK-8245]
The cell viability of the first is lower: under 0% for the first, 56.7% for the second.

Nc1nc(Cl)nc2c1ncn2[C@H]1C[C@H](O)[C@@H](CO)O1 [Cladribine] and CC[C@@]1(O)C(=O)OCc2c1cc1n(c2=O)Cc2cc3c(CN(C)C)c(O)ccc3nc2-1 [Topotecan] cannot be ordered by cell viability: under 0% for the first, under 0% for the second.

Compared with N#CC(C#N)=NNc1ccc(OC(F)(F)F)cc1 [FCCP], C=C(C)[C@H]1Cc2c(ccc3c2O[C@@H]2COc4cc(OC)c(OC)cc4[C@@H]2C3=O)O1 [Rotenone] is higher in cell viability: under 0% for the first, 1.21% for the second.

With C=C(C=NNC(=N)N)NNC(=N)N [Mitoguazone] the cell viability was 54.5%.

These compounds were tested on myeloid leukemia patient primary cells Pat.11 in the same assay as above. Settings: 1 nM; 72 h.
In short: as §1

Going from O=C(C1CC1)N1CC[C@@H](C=C2NNC(=O)N2c2ccc(-c3ccc4occc4c3)cc2)C1 to Cc1c(-c2ccc(-c3ccccc3F)cc2)nc2ccc(F)cc2c1C(=O)O [Brequinar], the cell viability rises from 94.6% to 97.9%.

Going from C[C@H](NC(=O)c1sccc1OCc1ccc(Cl)cc1)c1ccccc1 to Oc1ccc(Nc2nc(-c3ccc(Cl)cc3)cs2)cc1 [SKI II], the cell viability falls from 93% to 89.5%.

O=C(O)C1=CC(=C(c2ccc(O)c(C(=O)O)c2)c2ccc(O)c(C(=O)O)c2)C=CC1=O [Aurintricarboxylic acid] and O=C1c2cc([N+](=O)[O-])ccc2-n2c1nc1ccccc1c2=O [GNF-Pf-3777] cannot be ordered by cell viability: over 100% for the first, over 100% for the second.

First: COC(=O)[C@]12CCC(C)(C)C[C@H]1[C@H]1C(=O)C=C3[C@@]4(C)C=C(C#N)C(=O)C(C)(C)[C@@H]4CC[C@@]3(C)[C@]1(C)CC2 [Bardoxolone methyl]
Second: COc1cc(/C=C/C(=O)N2CCC=CC2=O)cc(OC)c1OC [Piperlongumine]
The cell viability of the first is higher: over 100% for the first, 94.1% for the second.

O=C1O/C(=C/Br)CCC1c1cccc2ccccc12 (centres undefined) [Bromoenol Lactone] and O=C(O)Cn1nnc(-c2cc(N3CCC(Oc4cc(F)ccc4Br)CC3)no2)n1 [MK-8245] cannot be ordered by cell viability: over 100% for the first, over 100% for the second.

Compared with Nc1nc(Cl)nc2c1ncn2[C@H]1C[C@H](O)[C@@H](CO)O1 [Cladribine], CC[C@@]1(O)C(=O)OCc2c1cc1n(c2=O)Cc2cc3c(CN(C)C)c(O)ccc3nc2-1 [Topotecan] is lower in cell viability: over 100% for the first, 99.8% for the second.

First: N#CC(C#N)=NNc1ccc(OC(F)(F)F)cc1 [FCCP]
Second: C=C(C)[C@H]1Cc2c(ccc3c2O[C@@H]2COc4cc(OC)c(OC)cc4[C@@H]2C3=O)O1 [Rotenone]
The cell viability of the first is higher: 98% for the first, 88.5% for the second.

For C=C(C=NNC(=N)N)NNC(=N)N [Mitoguazone], the cell viability was 98.8%.

Same assay, conditions: 10 nM; 72 h

First: O=C(C1CC1)N1CC[C@@H](C=C2NNC(=O)N2c2ccc(-c3ccc4occc4c3)cc2)C1
Second: Cc1c(-c2ccc(-c3ccccc3F)cc2)nc2ccc(F)cc2c1C(=O)O [Brequinar]
The cell viability of the first is lower: 98% for the first, over 100% for the second.

First: C[C@H](NC(=O)c1sccc1OCc1ccc(Cl)cc1)c1ccccc1
Second: O=C1O/C(=C/Br)CCC1c1cccc2ccccc12 (centres undefined) [Bromoenol Lactone]
The cell viability of the first is higher: over 100% for the first, 94.6% for the second.

Compared with O=C(O)C1=CC(=C(c2ccc(O)c(C(=O)O)c2)c2ccc(O)c(C(=O)O)c2)C=CC1=O [Aurintricarboxylic acid], O=C1c2cc([N+](=O)[O-])ccc2-n2c1nc1ccccc1c2=O [GNF-Pf-3777] is higher in cell viability: 95.8% for the first, 97.9% for the second.

Compared with COC(=O)[C@]12CCC(C)(C)C[C@H]1[C@H]1C(=O)C=C3[C@@]4(C)C=C(C#N)C(=O)C(C)(C)[C@@H]4CC[C@@]3(C)[C@]1(C)CC2 [Bardoxolone methyl], COc1cc(/C=C/C(=O)N2CCC=CC2=O)cc(OC)c1OC [Piperlongumine] is higher in cell viability: 91.2% for the first, 98.5% for the second.

First: Nc1nc(Cl)nc2c1ncn2[C@H]1C[C@H](O)[C@@H](CO)O1 [Cladribine]
Second: O=C(O)Cn1nnc(-c2cc(N3CCC(Oc4cc(F)ccc4Br)CC3)no2)n1 [MK-8245]
The cell viability of the first is higher: 96.6% for the first, 96.4% for the second.

Going from N#CC(C#N)=NNc1ccc(OC(F)(F)F)cc1 [FCCP] to C=C(C=NNC(=N)N)NNC(=N)N [Mitoguazone], the cell viability falls from 97.3% to 92.1%.
